The record followed here is patent publication US11591341B2 (ALIGOS THERAPEUTICS, INC., priority 2019, dated 2023).

Each structure is given as a SMILES string.

For the assay, the system named is HBV. Briefly: HBV-DNA Antiviral Assay Using HepG2.117 Cells (intracellular HBV DNA by qPCR). Format: cell-based, hepatitis B virus (genotype D). To be noted: Hepatitis B virus, HepG2.117. An outline of the steps:
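HepG2.117 cells (genotype D HBV, Tet-off) were induced by doxycycline withdrawal and treated for 3 days with 9 concentrations in 4-fold dilution, 2% DMSO final. Intracellular HBV DNA was measured by qPCR against a standard curve, with ATPlite viability read in parallel. EC50, EC90 and CC50 came from fits against the DMSO control.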
In general terms: Real-time PCR tracks product formation cycle by cycle.
A word on the EC50: it is the concentration giving half of the maximal effect. Regarding `O=C(NCc1ccccc1)c1c2n(c(=O)n1-c1ccccn1)CCN(C(=O)c1ccc(Cl)c(Cl)c1)C2` [Example 78, N-benzyl-7-(3,4-dichlorobenzoyl)-3-oxo-2-(2-pyridyl)-6,8-dihydro-5H-imdiazo[1,5-a]pyrazine-1-carboxamide], the EC50 is > 5 µM. The result for `COc1ccc(-n2c(C(=O)NCc3ccccc3)c3n(c2=O)CCN(C(=O)c2ccc(Cl)c(Cl)c2)C3)c(F)c1` [Example 79, N-benzyl-7-(3,4-dichlorobenzoyl)-2-(2-fluoro-4-methoxy-phenyl)-3-oxo-6,8-dihydro-5H-imidazo[1,5-a]pyrazine-1-carboxamide] reads 0.5 to 5 µM; that for `COc1ccc(-n2c(C(=O)NCc3ccccc3)c3n(c2=O)CCN(C(=O)c2ccc(Cl)c(Cl)c2)C3)c(C#N)c1` [Example 80, N-benzyl-2-(2-cyano-4-methoxy-phenyl)-7-(3,4-dichlorobenzoyl)-3-oxo-6,8-dihydro-5H-imidazo[1,5-a]pyrazine-1-carboxamide], > 5 µM; that for `COc1ccc(-n2c(C(=O)Nc3ccccc3)c3n(c2=O)CCN(C(=O)c2ccc(Cl)c(Cl)c2)C3)cc1` [Example 83, 7-(3,4-dichlorobenzoyl)-2-(4-methoxyphenyl)-3-oxo-N-phenyl-6,8-dihydro-5H-imidazo[1,5-a]pyrazine-1-carboxamide], > 5 µM. Consider `COc1ccc(-n2c(C(=O)NCc3ccc(C#N)cc3)c3n(c2=O)CCN(C(=O)c2ccc(Cl)c(Cl)c2)C3)cc1` [Example 84, N-[(4-cyanophenyl)methyl]-7-(3,4-dichlorobenzoyl)-2-(4-methoxyphenyl)-3-oxo-6,8-dihydro-5H-imidazo[1,5-a]pyrazine-1-carboxamide], for which the EC50 is > 5 µM. Molecule `COc1ccc(-n2c(C(=O)NCc3ccc(OC)cc3Cl)c3n(c2=O)CCN(C(=O)c2ccc(Cl)c(Cl)c2)C3)cc1` [Example 85, N-[(2-chloro-4-methoxy-phenyl)methyl]-7-(3,4-dichlorobenzoyl)-2-(4-methoxyphenyl)-3-oxo-6,8-dihydro-5H-imidazo[1,5-a]pyrazine-1-carboxamide] yielded an EC50 of 0.5 to 5 µM. Molecule `COc1ccc(-n2c(-c3ncc(Cc4ccccc4)o3)c3n(c2=O)CCN(C(=O)c2ccc(Br)c(Cl)c2)C3)cc1` [Example 86] had an EC50 of 0.5 to 5 µM. Take `COc1ccc(-n2c(C(=O)NCc3ccccc3)c3n(c2=O)CCN(C(=O)c2ccc(Cl)c(Cl)c2)C3)c(C)c1` [Example 87, N-benzyl-7-(3,4-dichlorobenzoyl)-2-(4-methoxy-2-methyl-phenyl)-3-oxo-6,8-dihydro-5H-imidazo[1,5-a]pyrazine-1-carboxamide]: the EC50 was > 5 µM.

`O=C(NCc1ccccc1)c1c2n(c(=O)n1-c1ccc3c(c1)OCO3)CCN(C(=O)c1ccc(Cl)c(Cl)c1)C2` [Example 88, 2-(1,3-benzodioxol-5-yl)-N-benzyl-7-(3,4-dichlorobenzoyl)-3-oxo-6,8-dihydro-5H-imidazo[1,5-a]pyrazine-1-carboxamide] yielded an EC50 of 0.5 to 5 µM. In the case of `COc1ccc(-n2c(C(=O)NCc3ccc(OC)c(C)c3)c3n(c2=O)CCN(C(=O)c2ccc(Cl)c(Cl)c2)C3)cc1` [Example 89, 7-(3,4-dichlorobenzoyl)-N-[(4-methoxy-3-methyl-phenyl)methyl]-2-(4-methoxyphenyl)-3-oxo-6,8-dihydro-5H-imidazo[1,5-a]pyrazine-1-carboxamide], the EC50 fell in the range of 0.5 to 5 µM.

In turn, `COc1ccc(-n2c(C(=O)NCc3ccc(C)c(OC)c3)c3n(c2=O)CCN(C(=O)c2ccc(Cl)c(Cl)c2)C3)cc1` [Example 90, 7-(3,4-dichlorobenzoyl)-N-[(3-methoxy-4-methyl-phenyl)methyl]-2-(4-methoxyphenyl)-3-oxo-6,8-dihydro-5H-imidazo[1,5-a]pyrazine-1-carboxamide] returned an EC50 of 0.5 to 5 µM. In the case of `COc1ccc(-n2c(C(=O)NCc3ccc4c(c3)OCCO4)c3n(c2=O)CCN(C(=O)c2ccc(Cl)c(Cl)c2)C3)cc1` [Example 91, 7-(3,4-dichlorobenzoyl)-N-(2,3-dihydro-1,4-benzodioxin-6-ylmethyl)-2-(4-methoxyphenyl)-3-oxo-6,8-dihydro-5H-imidazo[1,5-a]pyrazine-1-carboxamide], the EC50 is 0.5 to 5 µM.
